Here are results for two compounds from patent US11661398B2, “Cellular transport system for transferring a sulfonic acid construct carrying a cargo into the cytoplasm of a cell” (Scientist of Fortune, S.A., priority 2017, dated 2023).

Peptide text beside a SMILES is read from it.

For one assay, the system named is TK054 ΔpcnB. The assay can be described thus: Leucine auxotrophy complementation with peptide vector. The class given is cell-based, E. coli. The note with it: 1 mM peptide, 6×His_PnGGT ΔN24 expressed, IPTG present. As to the method:
(§1) LB Miller broth (Becton Dickinson, Sparks, Md., USA) was used as standard growth medium for bacterial cultures (Sambrook, 2001). For the preparation of competent cells, SOB medium was used (Hanahan, 1983). Unless stated otherwise, growth experiments in selective medium were carried out in M9 minimal medium (Sambrook, 2001) supplemented with 0.5% glucose, 1 μg mL^−1 thiamine, 0.5 mM IPTG and 1 mM alanyl-γ-glutamyl-leucine (>95% purity, custom synthesized by Pepscan, Lelystad, Netherlands). For growth experiments on solid medium Bacto Agar (Becton Dickinson) was added to a final concentration of 1.5%. Growth experiments in liquid medium were performed either in a Tecan Infinite 200 Pro plate reader (Tecan, Mannedorf, Switzerland) or in a Biolector Basic Microbiorector System (m2p-labs, Baesweiler, Germany). All growth experiments were performed at 37° C. […]
To verify that the beneficial effects to growth with Ala-γ-Glu-Leu were caused by activity reducing mutations in pcnB, the entire gene was removed from the unmutated leucine auxotrophic selection strain, resulting in strain TK054 ΔpcnB. On M9 minimal medium containing 0.5% glucose and 1 mM Ala-γ-Glu-Leu as the only source of leucine, no growth of this strain was detected if the inducer IPTG was omitted (FIG. 6a). […]

Another assay deals with TK054. Described as above. The note with it: 1 mM peptide, plasmid pACT3/6×His_PnGGT ΔN24, 0.5 mM IPTG, 37° C., 5 days or more. It counts as cell-based, E. coli. As to the method:
as §1
The possibility to express 6×His_PnGGT ΔN24 in the cytoplasm of E. coli and the enzyme's relaxed substrate specificity (Imaoka et al., 2010) opened up the possibility to selectively hydrolyze γ-glutamyl compounds within the cytoplasm. […] As a cargo, leucine was chosen, whose successful release could be easily detected by restoring growth to a leucine auxotrophic strain. […]

The target of assay [1] is T1, PnGGT ΔN24 D405N (Pseudomonas nitroreducens, UniProt E0D5C2, D405N).
T1 sequence (E0D5C2 with tags, fused parts or gaps D405N): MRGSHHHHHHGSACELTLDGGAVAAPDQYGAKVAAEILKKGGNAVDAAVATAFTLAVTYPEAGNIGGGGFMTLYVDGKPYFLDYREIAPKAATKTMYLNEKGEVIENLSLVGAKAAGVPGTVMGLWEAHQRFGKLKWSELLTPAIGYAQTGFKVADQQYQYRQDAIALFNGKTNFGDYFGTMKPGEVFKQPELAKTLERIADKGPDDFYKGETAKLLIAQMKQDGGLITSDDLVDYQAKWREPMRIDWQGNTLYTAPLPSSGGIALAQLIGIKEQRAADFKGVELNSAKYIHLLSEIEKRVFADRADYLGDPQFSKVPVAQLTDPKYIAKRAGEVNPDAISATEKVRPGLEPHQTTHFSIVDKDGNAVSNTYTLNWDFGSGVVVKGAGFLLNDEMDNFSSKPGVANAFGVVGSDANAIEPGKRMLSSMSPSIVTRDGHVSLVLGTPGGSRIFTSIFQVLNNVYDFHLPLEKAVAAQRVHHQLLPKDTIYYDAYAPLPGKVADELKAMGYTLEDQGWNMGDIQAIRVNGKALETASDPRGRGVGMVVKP
Description: Colorimetric GGT assay in whole cell lysates / cell free extracts. The class given is biochemical. The note with it: cell free extracts of strain TK018, 2 mM substrate (FIG. 22a). An excerpt:
FIG. 22: Identification of GGT* activity and refactoring of the ssuABC operon. […] The release of 4-nitroaniline was quantified by measuring the absorption at 410 nm. (b) Plasmid map of the three-dimensional RBS-library for refactoring the ssuABC operon using 144 RBS variants per gene. RBS library sequences are underlined. Arrows point towards the final RBS sequences observed in plasmid pSsuABC. […] (e) Growth of strain TK088[pSsuABC]transformed with the empty vector pACT3 (black circles) or plasmid pPnGGT* (white circles) in liquid MS minimal medium supplemented with 0.5% glucose, 1 mM MgSO4, 0.4 mM L-leucine, 0.5 mM IPTG, 100 ng ml^−1 aTc and 0.5 mM sulfobutanoyl-L-histidine. Bars and dots from panels (a), (d) and (e) represent the average of three independent measurements with standard deviations shown as error bars.
To test for the desired activity a colorimetric enzyme assay was chosen and the substrate sulfobutanoyl-p-nitroanilide was synthesized for this purpose. Hydrolysis of this colorless substrate by a GGT variant into sulfobutanoic acid and the yellow dye 4-nitroaniline can be quantified photometrically at 410 nm. For that, cytoplasmic GGT variants containing an N-terminal 6×His-tag were first expressed from E. coli (EcGGT ΔN24) and Pseudomonas nitroreducens (PnGGT ΔN24), as well as EcGGT ΔN24 D433N and the corresponding mutant variant PnGGT ΔN24 D405N. […]

A further assay addresses T2, EcGGT ΔN24 (Escherichia coli, UniProt P18956).
T2 construct: made in house; host or cells: E. coli (pACT3 plasmid, IPTG induction)
The assay can be described thus: Colorimetric GGT assay in whole cell lysates. The class given is biochemical, E. coli. Conditions: whole cell lysate, 4 mM substrate, 50 mM Tris-HCl (pH 9.0), 410 nm. An excerpt:
(§2) To test for the desired activity a colorimetric enzyme assay was chosen and the substrate sulfobutanoyl-p-nitroanilide was synthesized for this purpose. Hydrolysis of this colorless substrate by a GGT variant into sulfobutanoic acid and the yellow dye 4-nitroaniline can be quantified photometrically at 410 nm. For that, cytoplasmic GGT variants containing an N-terminal 6×His-tag were first expressed from E. coli (EcGGT ΔN24) and Pseudomonas nitroreducens (PnGGT ΔN24), as well as EcGGT ΔN24 D433N and the corresponding mutant variant PnGGT ΔN24 D405N. Position D405 of PnGGT was identified to fulfill the same function as position D433 of EcGGT by sequence alignment and homology modeling between EcGGT and PnGGT. Then the ability of whole cell lysates containing the respective enzymes was tested to hydrolyze L-glutamic acid γ-(3-carboxy-4-nitroanilide) or sulfobutanoyl-p-nitroanilide.

The next assay addresses T3, EcGGT ΔN24 D433N (Escherichia coli, UniProt P18956, D433N).
T3 construct: made in house; host or cells: E. coli (pACT3 plasmid); assayed in whole cell lysate
Description: Colorimetric GGT assay in whole cell lysates. It counts as biochemical, E. coli. The note with it: whole cell lysate, 4 mM substrate, 50 mM Tris-HCl (pH 9.0), 410 nm.
Description: as §2

The target of assay [2] is T4, PnGGT ΔN24 (Pseudomonas nitroreducens, UniProt E0D5C2). Description: Kinetic measurements with purified PnGGT ΔN24. The note with it: purified enzyme, 50 mM Tris-HCl (pH 9.0). It counts as biochemical. As to the method: (§3) For the experiments relating to the sulfonate based synthetic transport system, purification of PnGGT ΔN24 and PnGGT ΔN24 D405N containing an N-terminal 6×His-tag was performed according to previous reports (Van Dyke et al., 1992) using Ni-NTA Superflow (Qiagen, Hilden, Germany). For kinetic studies, PnGGT variants were purified with the aid of the 6×His-tag located at the N-terminal end of the large subunit following the same procedure. To exchange the buffer, purified proteins were dialyzed against 50 mM Tris/HCl (pH 7.0).
(§4) To determine the kinetic parameters of PnGGT ΔN24 and PnGGT ΔN24 D405N the purified enzymes were preincubated in 50 mM Tris-HCl (pH 9.0). To start the reaction, varying concentrations of the substrates L-glutamic acid γ-(3-carboxy-4-nitroanilide) or sulfobutanoyl-p-nitroanilide were added to the mixtures. The results were evaluated using GraphPad Prism (GraphPad Software, La Jolla, Calif., USA).

The target of assay [3] is T4, PnGGT ΔN24. Description: Colorimetric GGT assay in whole cell lysates. The class given is biochemical. Conditions: whole cell lysate, 4 mM substrate, 50 mM Tris-HCl (pH 9.0), 410 nm.
Description: as §2

For assay [4], the target named is T1, PnGGT ΔN24 D405N. Description: Kinetic measurements with purified PnGGT ΔN24 D405N. The class given is biochemical. Conditions: purified enzyme, 50 mM Tris-HCl (pH 9.0). As to the method: as §3, §4

As a reminder, the Km is the substrate concentration at which the rate is half of its maximum. Usually Vmax stands for the rate approached at saturating substrate. The term kcat denotes the maximal rate divided by the concentration of active sites.

For the compound `CC(C)C[C@H](NC(=O)CC[C@H](NC(=O)[C@H](C)N)C(=O)O)C(=O)O` [Ala-γ-Glu-Leu, alanyl-γ-glutamyl-leucine] (HELM PEPTIDE1{A.[gGlu].L}$$$$V2.0), the “growth with peptide as sole source of leucine” value in the assay with TK054 ΔpcnB is listed as “grew rapidly”; with TK054, “poor growth”.
On to `N[C@@H](CCC(=O)Nc1ccc([N+](=O)[O-])c(C(=O)O)c1)C(=O)O` [γ-Glu-p-nitroanilide, L-glutamic acid γ-(3-carboxy-4-nitroanilide), reference compound], for which, on PnGGT ΔN24 D405N [1], the “reactivity of PnGGT* to substrate” value is “no longer possesses significant reactivity”. The hydrolysis of substrate result was “able to hydrolyze” at EcGGT ΔN24, “still had detectable activity” at EcGGT ΔN24 D433N and “able to hydrolyze” at PnGGT ΔN24 [3]. For the same compound, the Km was 0.105 mM at PnGGT ΔN24 [2] and 6.5 mM at PnGGT ΔN24 D405N [4]. In addition, the figures for the Vmax at PnGGT ΔN24 [2] and on PnGGT ΔN24 D405N [4] were 34.94 ± 0.47 µmol/min/mg and 1.79 ± 0.61 µmol/min/mg, respectively. Further, the kcat at PnGGT ΔN24 [2] is 34.5 s⁻¹; on PnGGT ΔN24 D405N [4] it was 1.8 s⁻¹.
